Assay: PK of compound of Formula (Ia) after single subcutaneous dose of solution formulations in Wistar Han rats
Format: in vivo
Conditions: male, Wistar Han, rat, plasma, sc, 50 mg/kg, SC 50 mg/kg
Protocol: Formulations containing the compound of Formula (Ia), or a pharmaceutically acceptable salt thereof, were prepared as solutions and optionally administered subcutaneously or intramuscularly to rats, rabbits, and/or dogs.
(§1) A solution of about 400 mg/mL of the compound of Formula (Ia) having 19.14 w/w % water, 40.66 w/w % PEG 300, 35.20 w/w % of a sodium salt of a compound of Formula (Ia), and 5.00% ethanol was prepared. The solution was administered subcutaneously to male Wistar Han rats at a dose level of about 50 mg/kg and dose volume of 0.125 mL/kg and the pharmacokinetic (PK) profile was determined.
as §1, with “500” for “400”, “16.64” for “19.14”, “35.36” for “40.66”, “43.00” for “35.20”, “0.1” for “0.125”
(§2) A solution of about 400 mg/mL of the compound of Formula (Ia) having 17.00 w/w % water, 36.40 w/w % PEG 300, 35.20 w/w % of a sodium salt of a compound of Formula (Ia), 5.00 w/w % ethanol, and 6.40 w/w % poloxamer 188 was prepared. The solution was administered subcutaneously to male beagle dogs at a dose level of about 12 mg/kg and male Wistar Han rats at a dose level of about 50 mg/kg. The pharmacokinetic profiles were determined, and the results for dogs are summarized in Table and Table, while the results for rats are summarized in Table and Table below.
as §2, with “500” for “400”, “14.06” for “17.00”, “30.12” for “36.40”
A solution of about 300 mg/mL of the compound of Formula (Ia) having 23.33 w/w % water, 48.99 w/w % PEG 300, 26.47 w/w % of a sodium salt of a compound of Formula (Ia), and 1.21 w/w % poloxamer 188 was prepared. The solution was administered subcutaneously to male beagle dogs at a dose level of about 6 mg/kg and male Wistar Han rats at a dose level of about 50 mg/kg. The pharmacokinetic profiles were determined, and the results for dogs are summarized in Table and Table, while the results for rats are summarized in Table and Table below.
as §2, with “18.80” for “17.00”, “40.25” for “36.40”, “34.38” for “35.20”, “1.57” for “6.40”
as §2, with “500” for “400”, “16.29” for “17.00”, “34.88” for “36.40”, “41.92” for “35.20”, “1.91” for “6.40”
A solution of about 400 mg/mL of the compound of Formula (Ia) having 20.90 w/w % water, 44.72 w/w % PEG 300, and 34.38 w/w % of a sodium salt of a compound of Formula (Ia) was prepared. […]

[1] = individual rats, solution T, 400 mg/mL
[2] = individual rats, solution U, 500 mg/mL
[3] = individual rats, solution V, 300 mg/mL
[4] = mean, n = 3 rats, solution R, 400 mg/mL
[5] = mean, n = 3 rats, solution S, 500 mg/mL
[6] = mean, n = 3 rats, solution V, 300 mg/mL
[7] = mean, n = 5 rats, solution T, 400 mg/mL
[8] = mean, n = 5 rats, solution U, 500 mg/mL
[9] = individual rats, solution R, 400 mg/mL
[10] = individual rats, solution S, 500 mg/mL

- concentration at 8 h [1]: 294 nM
- concentration at 8 h [2]: 176 nM
- concentration at 8 h [3]: 170 nM
- concentration at 8 h [4]: 112 nM
- concentration at 8 h [5]: 100 nM
- concentration at 8 h [6]: 155 nM
- concentration at 8 h [7]: 211 nM
- concentration at 8 h [8]: 142 nM
- concentration at 24 h [9]: 167 nM
- concentration at 24 h [10]: 111 nM
- concentration at 24 h [2]: 300 nM
- concentration at 24 h [3]: 222 nM
- concentration at 24 h [4]: 162 nM
- concentration at 24 h [5]: 127 nM
- concentration at 24 h [6]: 193 nM
- concentration at 24 h [7]: 339 nM
- concentration at 24 h [8]: 224 nM
- concentration at 48 h [9]: 184 nM
- concentration at 48 h [10]: 92.6 nM
- concentration at 48 h [3]: 265 nM
- concentration at 48 h [4]: 151 nM
- concentration at 48 h [5]: 123 nM
- concentration at 48 h [6]: 197 nM
- concentration at 48 h [7]: 307 nM
- concentration at 48 h [8]: 211 nM
- concentration at 72 h [9]: 168 nM
- concentration at 72 h [10]: 95.8 nM
- concentration at 72 h [1]: 353 nM
- concentration at 72 h [3]: 187 nM
- concentration at 72 h [4]: 148 nM
- concentration at 72 h [5]: 127 nM
- concentration at 72 h [6]: 148 nM
- concentration at 72 h [7]: 247 nM
- concentration at 72 h [8]: 197 nM
- concentration at 96 h [9]: 181 nM
- concentration at 96 h [10]: 105 nM
- concentration at 96 h [2]: 230 nM
- concentration at 96 h [3]: 164 nM
- concentration at 96 h [4]: 152 nM
- concentration at 96 h [5]: 120 nM
- concentration at 96 h [6]: 136 nM
- concentration at 96 h [7]: 240 nM
- concentration at 96 h [8]: 167 nM
- concentration at 168 h [9]: 191 nM
- concentration at 168 h [10]: 123 nM
- concentration at 168 h [3]: 100 nM
- concentration at 168 h [4]: 160 nM
- concentration at 168 h [5]: 109 nM
- concentration at 168 h [6]: 104 nM
- concentration at 168 h [7]: 173 nM
- concentration at 168 h [8]: 154 nM
- concentration at 336 h [9]: 251 nM
- concentration at 336 h [3]: 194 nM
- concentration at 336 h [4]: 261 nM
- concentration at 336 h [5]: 183 nM
- concentration at 336 h [6]: 201 nM
- concentration at 336 h [7]: 254 nM
- concentration at 336 h [8]: 244 nM
- concentration at 504 h [9]: 348 nM
- concentration at 504 h [10]: 415 nM
- concentration at 504 h [3]: 241 nM
- concentration at 504 h [4]: 353 nM
- concentration at 504 h [5]: 287 nM
- concentration at 504 h [6]: 265 nM
- concentration at 504 h [7]: 301 nM
- concentration at 504 h [8]: 303 nM
- concentration at 672 h [9]: 290 nM
- concentration at 672 h [10]: 407 nM
- concentration at 672 h [3]: 274 nM
Structure (SMILES): CC(C)(C#Cc1ccc(-c2ccc(Cl)c3c(NS(C)(=O)=O)nn(CC(F)(F)F)c23)c([C@H](Cc2cc(F)cc(F)c2)NC(=O)Cn2nc(C(F)(F)F)c3c2C(F)(F)[C@@H]2C[C@H]32)n1)S(C)(=O)=O [compound of Formula (Ia)]
